{"source": "patent US20240158385A1", "about": "“NOVEL COMPOUNDS” (Cerevance, Inc., priority 2021, published 2024)", "data": [{"target": "T1, human KCNK13 (Homo sapiens, UniProt Q9HB14)", "T1 construct": "expressed in transfected cells", "T1 sequence (Q9HB14 1-408)": "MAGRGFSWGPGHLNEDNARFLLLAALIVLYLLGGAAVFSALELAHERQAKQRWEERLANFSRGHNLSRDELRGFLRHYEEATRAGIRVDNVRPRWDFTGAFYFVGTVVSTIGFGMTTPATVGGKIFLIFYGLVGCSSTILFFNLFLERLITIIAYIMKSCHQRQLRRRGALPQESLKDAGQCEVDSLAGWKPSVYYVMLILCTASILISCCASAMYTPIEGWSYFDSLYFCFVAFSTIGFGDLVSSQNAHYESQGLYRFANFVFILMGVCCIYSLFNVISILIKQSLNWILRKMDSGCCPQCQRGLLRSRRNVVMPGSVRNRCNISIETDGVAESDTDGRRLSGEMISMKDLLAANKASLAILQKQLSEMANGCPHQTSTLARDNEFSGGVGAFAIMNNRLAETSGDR", "experiment": "KCNK13 antagonist activity, thallium (Tl+) flux FLIPR assay", "type": "cell-based", "details": "not given", "method": "(§1) KCNK13 antagonist activity was determined by measuring changes in intracellular Thallium (Tl^+) concentrations using a Tl^+ sensitive fluorescent dye. The changes in fluorescent signal were monitored by Fluorescent Imaging Plate Reader (FLIPR™) technology available from Molecular Devices, LLC, US. KCNK13 mediated increases in intracellular Tl+concentration were readily detected by addition of a thallium sulfate stimulus. 24 hours prior to the assay, human embryonic kidney 293 cells (HEK 293 cells) stably expressing human KCNK13 were seeded in cell culture medium in PDL coated black, clear-bottom 384-well plates (commercially available from Corning Inc., 356663) and grown overnight at 37° C., 5% CO2. On the day of the assay, cell culture media was removed and cells were loaded with potassium dye (commercially sold by Molecular Devices, LLC, US, R8222) for 1 hour at room temperature in the dark. Test compounds (at 10 point half log concentration response curves from […]) were added to cells for 15 minutes prior to the addition of thallium sulfate to all wells. The IC50 values were determined from ten point concentration response curves. Curves were generated using the average of two wells for each data point.", "units": {"IC50": "nM"}, "values": [{"compound": "Nc1nonc1-c1nc2cccnc2n1Cc1ccc(Cl)nc1", "note": "[Example 23, 4-[3-[(6-chloropyridin-3-yl)methyl]imidazo[4,5-b]pyridin-2-yl]-1,2,5-oxadiazol-3-amine]", "IC50": "< 50"}]}, {"target": "T1, human KCNK13", "experiment": "KCNK13 antagonist activity, thallium (Tl+) flux FLIPR assay", "type": "cell-based", "details": "HEK 293 cells stably expressing human KCNK13; Tl+ sensitive dye, FLIPR; compounds 15 minutes prior to thallium sulfate; 10 point half log curves from 10 PM; read-out: hKCNK13 IC50", "method": "as §1", "units": {"IC50": "nM"}, "values": [{"compound": "Cc1nonc1-c1nc2ccccc2n1Cc1ncccc1F", "note": "[Example 82, 3-[1-[(3-fluoropyridin-2-yl)methyl]benzimidazol-2-yl]-4-methyl-1,2,5-oxadiazole]", "IC50": "< 1000"}, {"compound": "[2H]C([2H])(c1cccnc1)n1c(-c2nonc2C)nc2cccc(F)c21", "note": "(single isomer, unassigned) [Example 31, 3-[1-[dideuterio(pyridin-3-yl)methyl]-7-fluoro-benzimidazol-2-yl]-4-methyl-1,2,5-oxadiazole]", "IC50": "< 50"}, {"compound": "CNc1nsnc1-c1nc2c(F)cccc2n1Cc1cccnn1", "note": "[Example 144, 4-(4-fluoro-1-(pyridazin-3-ylmethyl)-benzimidazol-2-yl)-N-methyl-1,2,5-thiadiazol-3-amine]", "IC50": "< 1000"}, {"compound": "Cc1nonc1-c1nc2cccc(F)c2n1Cc1ccc(Cl)nc1", "note": "[Example 38, 3-[1-[(6-chloropyridin-3-yl)methyl]-7-fluoro-benzimidazol-2-yl]-4-methyl-1,2,5-oxadiazole]", "IC50": "< 50"}, {"compound": "COc1ccc(Cn2c(-c3nonc3N)nc3cccnc32)cn1", "note": "[Example 14, 4-[3-[(6-methoxypyridin-3-yl)methyl]imidazo[4,5-b]pyridin-2-yl]-1,2,5-oxadiazol-3-amine]", "IC50": "< 200"}, {"compound": "Nc1nonc1-c1nc2cncc(F)c2n1Cc1cccnn1", "note": "(single isomer, unassigned) [Example 187, 4-(7-fluoro-1-(pyridazin-3-ylmethyl)-1H-imidazo[4,5-c]pyridin-2-yl)-1,2,5-oxadiazol-3-amine]", "IC50": "< 500"}, {"compound": "Cc1nsnc1-c1nc2cccc(F)c2n1Cc1cccnc1", "note": "(single isomer, unassigned) [Example 125, 3-[7-fluoro-1-(pyridin-3-ylmethyl)benzimidazol-2-yl]-4-methyl-1,2,5-thiadiazole]", "IC50": "< 50"}, {"compound": "Cc1ncc(Cn2c(-c3nonc3C)nc3ccccc32)cn1", "note": "[Example 64, 3-methyl-4-[1-[(2-methylpyrimidin-5-yl)methyl]benzimidazol-2-yl]-1,2,5-oxadiazole]", "IC50": "< 200"}, {"compound": "Cc1ccsc1-c1nc2ccccc2n1Cc1cccnc1", "note": "[Example 100, 2-(3-methylthiophen-2-yl)-1-(pyridin-3-ylmethyl)benzimidazole]", "IC50": "< 200"}, {"compound": "Cc1snnc1-c1nc2ccccc2n1Cc1cccnc1", "note": "[Example 102, 5-methyl-4-[1-(pyridin-3-ylmethyl)benzimidazol-2-yl]-1,2,3-thiadiazole]", "IC50": "< 200"}, {"compound": "Nc1nonc1-c1nc2ccccc2n1Cc1cncc(C(F)(F)F)c1", "note": "[Example 95, 4-[1-[[5-(trifluoromethyl)pyridin-3-yl]methyl]benzimidazol-2-yl]-1,2,5-oxadiazol-3-amine]", "IC50": "< 100"}, {"compound": "N#Cc1ccc(Cn2c(-c3nonc3N)nc3c(F)cccc32)cn1", "note": "[Example 8, 5-[[2-(4-amino-1,2,5-oxadiazol-3-yl)-4-fluoro-benzimidazol-1-yl]methyl]pyridine-2-carbonitrile]", "IC50": "< 100"}, {"compound": "Nc1nonc1-c1nc2c(F)cccc2n1Cc1cccnn1", "note": "[Example 179, 4-(4-fluoro-1-(pyridazin-3-ylmethyl)-benzimidazol-2-yl)-1,2,5-oxadiazol-3-amine]", "IC50": "< 200"}, {"compound": "Nc1nonc1-c1nc2ccc(F)cc2n1Cc1ccncc1", "note": "[Example 91, 4-[6-fluoro-1-(pyridin-4-ylmethyl)benzimidazol-2-yl]-1,2,5-oxadiazol-3-amine]", "IC50": "< 50"}, {"compound": "Nc1nonc1-c1nc2cc(F)ccc2n1Cc1cccnc1", "note": "(single isomer, unassigned) [Example 119, 4-[5-fluoro-1-(pyridin-3-ylmethyl)benzimidazol-2-yl]-1,2,5-oxadiazol-3-amine]", "IC50": "< 50"}, {"compound": "Cc1nonc1-c1nc2c(Cl)cccc2n1Cc1ccc(C#N)nc1", "note": "(single isomer, unassigned) [Example 61, 5-[[4-chloro-2-(4-methyl-1,2,5-oxadiazol-3-yl)benzimidazol-1-yl]methyl]pyridine-2-carbonitrile]", "IC50": "< 200"}, {"compound": "Cc1nonc1-c1nc2cccc(F)c2n1Cc1ccc(C#N)nn1", "note": "[Example 46, 6-[[7-fluoro-2-(4-methyl-1,2,5-oxadiazol-3-yl)benzimidazol-1-yl]methyl]pyridazine-3-carbonitrile]", "IC50": "< 100"}, {"compound": "Cc1ccc(Cn2c(-c3nonc3N)nc3c(F)cccc32)nn1", "note": "(single isomer, unassigned) [Example 169, 4-(4-fluoro-1-((6-methylpyridazin-3-yl)methyl)-benzimidazol-2-yl)-1,2,5-oxadiazol-3-amine]", "IC50": "< 200"}, {"compound": "CNc1nsnc1-c1nc2cccc(F)c2n1Cc1cccnn1", "note": "[Example 143, 4-(7-fluoro-1-(pyridazin-3-ylmethyl)-benzimidazol-2-yl)-N-methyl-1,2,5-thiadiazol-3-amine]", "IC50": "< 200"}, {"compound": "Cc1conc1-c1nc2cccc(F)c2n1Cc1cccnn1", "note": "[Example 182, 3-(7-fluoro-1-(pyridazin-3-ylmethyl)-benzimidazol-2-yl)-4-methylisoxazole]", "IC50": "< 200"}, {"compound": "Nc1nonc1-c1nc2ncc(F)cc2n1Cc1cncnc1", "note": "[Example 160, 4-(6-fluoro-1-(pyrimidin-5-ylmethyl)-1H-imidazo[4,5-b]pyridin-2-yl)-1,2,5-oxadiazol-3-amine]", "IC50": "< 500"}, {"compound": "COc1ccc(Cn2c(-c3nonc3C)nc3ccccc32)cn1", "note": "[Example 53, 3-[1-[(6-methoxypyridin-3-yl)methyl]benzimidazol-2-yl]-4-methyl-1,2,5-oxadiazole]", "IC50": "< 100"}, {"compound": "Nc1nonc1-c1nc2c(F)cccc2n1Cc1cncnc1", "note": "[Example 131, 4-[4-fluoro-1-(pyrimidin-5-ylmethyl)benzimidazol-2-yl]-1,2,5-oxadiazol-3-amine]", "IC50": "< 100"}, {"compound": "N#Cc1ccc(Cn2c(-c3nonc3N)nc3c(F)cccc32)nn1", "note": "(single isomer, unassigned) [Example 175, 6-((2-(4-amino-1,2,5-oxadiazol-3-yl)-4-fluoro-benzimidazol-1-yl)methyl)pyridazine-3-carbonitrile]", "IC50": "< 200"}, {"compound": "Nc1nonc1-c1nc2c(F)cccc2n1Cc1ccncc1", "note": "(single isomer, unassigned) [Example 121, 4-[4-fluoro-1-(pyridin-4-ylmethyl)benzimidazol-2-yl]-1,2,5-oxadiazol-3-amine]", "IC50": "< 100"}, {"compound": "Nc1nonc1-c1nc2ccccc2n1Cc1ccc(Br)nc1", "note": "[Example 88, 4-(1-((6-bromopyridin-3-yl)methyl)benzimidazol-2-yl)-1,2,5-oxadiazol-3-amine]", "IC50": "< 50"}, {"compound": "Cc1nonc1-c1nc2c(F)cccc2n1Cc1cncnc1", "note": "[Example 9, 3-[4-fluoro-1-(pyrimidin-5-ylmethyl)benzimidazol-2-yl]-4-methyl-1,2,5-oxadiazole]", "IC50": "< 100"}, {"compound": "Nc1nonc1-c1nc2cccc(F)c2n1Cc1ccc(C(F)F)nn1", "note": "(single isomer, unassigned) [Example 172, 4-(1-((6-(difluoromethyl)pyridazin-3-yl)methyl)-7-fluoro-benzimidazol-2-yl)-1,2,5-oxadiazol-3-amine]", "IC50": "< 200"}, {"compound": "Cc1cc(C)nc(Cn2c(-c3nonc3C)nc3ccccc32)c1", "note": "[Example 75, 3-[1-[(4,6-dimethylpyridin-2-yl)methyl]benzimidazol-2-yl]-4-methyl-1,2,5-oxadiazole]", "IC50": "< 500"}, {"compound": "Nc1nonc1-c1nc2cccc(F)c2n1Cc1ccc(Cl)nn1", "note": "(single isomer, unassigned) [Example 148, 4-(1-((6-chloropyridazin-3-yl)methyl)-7-fluoro-benzimidazol-2-yl)-1,2,5-oxadiazol-3-amine]", "IC50": "< 50"}, {"compound": "Nc1nonc1-c1nc2c(F)cncc2n1Cc1cccnn1", "note": "(single isomer, unassigned) [Example 188, 4-(7-fluoro-3-(pyridazin-3-ylmethyl)-3H-imidazo[4,5-c]pyridin-2-yl)-1,2,5-oxadiazol-3-amine]", "IC50": "< 5000"}, {"compound": "Nc1nonc1-c1nc2cccc(F)c2n1Cc1ccc(C(F)(F)F)nn1", "note": "(single isomer, unassigned) [Example 166, 4-(7-fluoro-1-((6-(trifluoromethyl)pyridazin-3-yl)methyl)-benzimidazol-2-yl)-1,2,5-oxadiazol-3-amine]", "IC50": "< 100"}, {"compound": "N#Cc1ncc(Cn2c(-c3nonc3N)nc3cccnc32)cn1", "note": "[Example 11, 5-[[2-(4-amino-1,2,5-oxadiazol-3-yl)imidazo[4,5-b]pyridin-3-yl]methyl]pyrimidine-2-carbonitrile]", "IC50": "< 200"}, {"compound": "N#Cc1ncc(Cn2c(-c3nonc3N)nc3cccc(F)c32)cn1", "note": "(single isomer, unassigned) [Example 25, 5-[[2-(4-amino-1,2,5-oxadiazol-3-yl)-7-fluoro-benzimidazol-1-yl]methyl]pyrimidine-2-carbonitrile]", "IC50": "< 50"}]}]}
